Data reported in the Kinase Knowledgebase extract (Sharma et al. 2016).

These molecules were tested against EGFR (UniProt P00533). Conditions: concentration not given here.
Sequence of EGFR (P00533 whole entry, looked up): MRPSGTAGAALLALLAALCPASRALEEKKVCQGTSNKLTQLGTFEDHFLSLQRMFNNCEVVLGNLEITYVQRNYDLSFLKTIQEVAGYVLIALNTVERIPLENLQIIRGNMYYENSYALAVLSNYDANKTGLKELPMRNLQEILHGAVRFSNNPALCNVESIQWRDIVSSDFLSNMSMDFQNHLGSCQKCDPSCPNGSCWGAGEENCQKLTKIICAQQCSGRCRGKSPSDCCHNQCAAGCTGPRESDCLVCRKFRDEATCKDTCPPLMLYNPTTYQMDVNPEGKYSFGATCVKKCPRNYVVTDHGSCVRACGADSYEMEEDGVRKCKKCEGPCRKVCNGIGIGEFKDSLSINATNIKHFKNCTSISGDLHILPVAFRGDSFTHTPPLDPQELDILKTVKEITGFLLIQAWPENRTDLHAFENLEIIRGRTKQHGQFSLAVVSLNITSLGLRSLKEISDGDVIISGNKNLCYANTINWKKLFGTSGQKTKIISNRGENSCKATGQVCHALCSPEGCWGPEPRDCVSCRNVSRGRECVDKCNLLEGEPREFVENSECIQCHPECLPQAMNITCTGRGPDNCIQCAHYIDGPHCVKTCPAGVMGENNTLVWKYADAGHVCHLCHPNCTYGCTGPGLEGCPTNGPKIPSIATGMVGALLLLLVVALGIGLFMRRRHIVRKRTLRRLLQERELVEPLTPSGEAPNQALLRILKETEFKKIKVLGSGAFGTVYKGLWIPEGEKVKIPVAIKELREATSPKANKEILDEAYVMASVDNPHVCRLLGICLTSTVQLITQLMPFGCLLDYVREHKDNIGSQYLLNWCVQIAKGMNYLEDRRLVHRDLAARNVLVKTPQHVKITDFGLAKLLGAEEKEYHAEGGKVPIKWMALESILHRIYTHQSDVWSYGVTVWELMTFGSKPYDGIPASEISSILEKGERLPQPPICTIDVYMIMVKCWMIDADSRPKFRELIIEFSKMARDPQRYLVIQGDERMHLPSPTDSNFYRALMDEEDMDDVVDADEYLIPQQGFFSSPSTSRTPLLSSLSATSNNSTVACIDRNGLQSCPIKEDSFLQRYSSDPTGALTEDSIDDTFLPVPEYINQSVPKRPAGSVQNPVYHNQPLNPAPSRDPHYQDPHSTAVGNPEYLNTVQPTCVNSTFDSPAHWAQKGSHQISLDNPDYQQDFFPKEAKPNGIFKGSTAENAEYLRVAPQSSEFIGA

inhibition	SMILES
48.5%	CCC(=O)Nc1ccc(O)c(C(=O)Nc2ccc(Oc3ccccc3)cc2)c1
5.84%	C=CC(=O)Nc1ccc(OC)c(C(=O)Nc2cccc(C(O)c3ccccc3)c2)c1 (centres undefined)
1.59%	C=CC(=O)Nc1ccc(OC)c(C(=O)Nc2cccc(Oc3ccccc3)c2)c1
46.6%	CCC(=O)Nc1ccc(O)c(C(=O)Nc2cccc(C(=O)N(CC)CC)c2)c1
